*1 amine or outer side, *2 acyl side, *3 side chain or, on linkers, in order; H or OH if unused. Where a SMILES comes first, the peptide text is derived from it. Bridges are numbered along the chain shown (N, C = ends). [ ]: non-standard residue; d: D form. The star is where a group is joined. hPhe(3-Cl-4-CF3) = N[C@@H](CCc1ccc(C(F)(F)F)c(Cl)c1)C(=O)O; X40 = CCCN([C@@H](Cc1ccc(OC)cc1)C(=O)[*:2])[*:1]; NMeGly(cPent) = CN[C@H](C(=O)O)C1CCCC1; NMeD = CN[C@@H](CC(=O)O)C(=O)O; NMeL = CN[C@@H](CC(C)C)C(=O)O; Morpholide = C1CN(*)CCO1; NMeA = CN[C@@H](C)C(=O)O; Ac5c = NC1(C(=O)O)CCCC1; Aze = O=C(O)[C@@H]1CCN1; Sar = CNCC(=O)O
Columns and labels:
[1] = biological target: GDP-bound NRAS wild-type protein (Homo sapiens, UniProt P01111); assay: Binding to NRAS by surface plasmon resonance (SPR), Single Cycle Kinetics
Sequence of GDP-bound NRAS wild-type protein (P01111 whole entry): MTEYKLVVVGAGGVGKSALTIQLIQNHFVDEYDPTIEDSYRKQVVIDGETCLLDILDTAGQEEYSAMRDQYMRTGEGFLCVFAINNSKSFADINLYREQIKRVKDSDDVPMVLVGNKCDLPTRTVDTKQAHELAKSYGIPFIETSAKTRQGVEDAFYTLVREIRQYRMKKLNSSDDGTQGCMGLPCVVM

[2] = biological target: GDP-bound HRAS wild-type protein (Homo sapiens, UniProt P01112); assay: Binding to HRAS by surface plasmon resonance (SPR), Single Cycle Kinetics
Sequence of GDP-bound HRAS wild-type protein (P01112 whole entry): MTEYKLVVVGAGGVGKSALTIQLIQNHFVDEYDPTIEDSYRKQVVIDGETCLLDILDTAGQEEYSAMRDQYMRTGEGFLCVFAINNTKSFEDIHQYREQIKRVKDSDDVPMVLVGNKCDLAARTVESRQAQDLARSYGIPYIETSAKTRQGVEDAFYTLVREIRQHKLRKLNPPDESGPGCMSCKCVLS

[3] = KD ratio, GDP-bound NRAS wild-type vs GDP-bound KRAS wild-type, SPR
[4] = KD ratio, GDP-bound HRAS wild-type vs GDP-bound KRAS wild-type, SPR

CCCN1C(=O)[C@@H]2CCN2C(=O)[C@H](C)N(C)C(=O)[C@H]([C@@H](C)CC)NC(=O)[C@H](CC(C)C)N(C)C(=O)C[C@@H](C(=O)N2CCOCC2)N(C)C(=O)[C@H](C2CCCC2)N(C)C(=O)C2(CCCC2)NC(=O)[C@@H]2CCCN2C(=O)[C@H](CCc2ccc(C(F)(F)F)c(Cl)c2)NC(=O)CN(C)C(=O)[C@@H]1Cc1ccc(OC)cc1 [PP0134] ([NMeL]I[NMeA][Aze][X40][Sar][hPhe(3-Cl-4-CF3)]P[Ac5c][NMeGly(cPent)][NMeD]-Morpholide; lactam N-11)
NRAS/KRAS (ratio of KD for GDP-bound NRAS wild-type to KD for KRAS) ([1]; KD ratio NRAS/KRAS, SPR): C (A compound having a KD ratio of 0.1 or more and less than 3 is denoted as C) | HRAS/KRAS (ratio of KD for GDP-bound HRAS wild-type to KD for KRAS) ([2]; KD ratio HRAS/KRAS, SPR): B (a compound having 3 or more and less than 10 is denoted as B)

CC[C@H](C)[C@@H]1NC(=O)[C@H](CC)N(C)C(=O)C[C@@H](C(=O)N(C)C)N(C)C(=O)[C@H](C2CCCC2)N(C)C(=O)C2(CCCC2)N(C)C(=O)[C@@H]2C[C@@H](C)CN2C(=O)[C@H](CCc2cc(F)c(C(F)(F)F)c(F)c2)NC(=O)CN(C)C(=O)[C@H](Cc2ccc(C)cc2)N2CC/C=C\C[C@@H](C2=O)N(C)C(=O)CN(C)C1=O [PP1812]
NRAS/KRAS (ratio of KD value for NRAS to KD value for KRAS) [1, 3]: A (a compound having 10 or more and less than 20 is denoted as A) | HRAS/KRAS (ratio of KD value for HRAS to KD value for KRAS) [2, 4]: A (a compound having 10 or more and less than 20 is denoted as A)

CC[C@H](C)[C@@H]1NC(=O)[C@H](CC(C)C)N(C)C(=O)C[C@@H](C(=O)N2CCOCC2)N(C)C(=O)[C@H](C2CCCC2)N(C)C(=O)C2(CCCC2)NC(=O)[C@@H]2CCCN2C(=O)[C@H](CCc2cc(F)c(C(F)(F)F)c(F)c2)NC(=O)CN(C)C(=O)[C@H](Cc2ccc(C(F)(F)F)cc2)N2CCCCC[C@@H](C2=O)N(C)C(=O)CN(CC)C1=O [PP0483]
NRAS/KRAS (ratio of KD value with respect to GDP-bound NRAS wild-type protein to KD value with respect to KRAS) ([1]; KD ratio NRAS/KRAS, SPR): B (a compound having 3 or more and less than 10 is denoted as B) | HRAS/KRAS (ratio of KD value with respect to GDP-bound HRAS wild-type protein to KD value with respect to KRAS) ([2]; KD ratio HRAS/KRAS, SPR): B (a compound having 3 or more and less than 10 is denoted as B)

CCCOC[C@H]1C(=O)N[C@@H]([C@@H](C)OCC)C(=O)N(C)CC(=O)N(C)[C@H]2C/C=C\CCN(C2=O)[C@@H](Cc2ccc(C)cc2)C(=O)N(C)CC(=O)N[C@@H](CCc2cc(F)c(C(F)(F)F)c(F)c2)C(=O)N2C[C@@H](C)C[C@H]2C(=O)NC2(CC(C)(C)C2)C(=O)N(C)[C@@H](C2CCCC2)C(=O)N(C)[C@H](C(=O)N(C)CC)CC(=O)N1C [PP2424]
NRAS/KRAS (ratio of KD value with respect to NRAS to KD value with respect to KRAS) ([1]; SPR, GDP-bound NRAS wild-type vs GDP-bound KRAS wild-type): A (a compound having 10 or more and less than 20 is denoted as A) | HRAS/KRAS (ratio of KD value with respect to HRAS to KD value with respect to KRAS) ([2]; SPR, GDP-bound HRAS wild-type vs GDP-bound KRAS wild-type): A (a compound having 10 or more and less than 20 is denoted as A)

CCO[C@@H]1C[C@H]2C(=O)NC3(CCC3)C(=O)N(C)[C@@H](C3CCCC3)C(=O)N(C)[C@H](C(=O)N(C)C)CC(=O)N(C)[C@@H](CC3CCCC3)C(=O)N[C@@H]([C@@H](C)CC)C(=O)N(C)CC(=O)N(C)[C@H]3C/C=C\CCN(C3=O)[C@@H](Cc3ccc(C)cc3)C(=O)N(C)CC(=O)N[C@@H](CCc3ccc(C(F)(F)F)c(CC)c3)C(=O)N2C1 [PP2672]
NRAS/KRAS (ratio of KD value with respect to GDP-bound NRAS wild-type protein to KD value with respect to KRAS) ([1]; KD ratio NRAS/KRAS, class symbols): B (a compound having 3 or more and less than 10 is denoted as B) | HRAS/KRAS (ratio of KD value with respect to GDP-bound HRAS wild-type protein to KD value with respect to KRAS) ([2]; KD ratio HRAS/KRAS, class symbols): B (a compound having 3 or more and less than 10 is denoted as B)

CC[C@H](C)[C@@H]1NC(=O)[C@H](COC)N(C)C(=O)C[C@@H](C(=O)N2CCOCC2)N(C)C(=O)[C@H](C2CCCC2)N(C)C(=O)C2(CCCC2)NC(=O)[C@@H]2C[C@H](O)CN2C(=O)[C@H](CCc2cc(F)c(C(F)(F)F)c(F)c2)NC(=O)CN(C)C(=O)[C@H](Cc2ccc(C(F)(F)F)cc2)N2CCCCC[C@@H](C2=O)N(C)C(=O)CN(C)C1=O [PP0847]
NRAS/KRAS (ratio of KD value with respect to NRAS to KD value with respect to KRAS) [1, 3]: B (a compound having 3 or more and less than 10 is denoted as B) | HRAS/KRAS (ratio of KD value with respect to HRAS to KD value with respect to KRAS) [2, 4]: B (a compound having 3 or more and less than 10 is denoted as B)

CC[C@H](C)[C@@H]1NC(=O)[C@H](C)N(C)C(=O)C[C@@H](C(=O)N(C)C)N(C)C(=O)[C@H](C2CCCC2)N(C)C(=O)C2(CCC2)NC(=O)[C@@H]2CCCN2C(=O)[C@H](CCc2cc(F)c(C(F)(F)F)c(F)c2)NC(=O)CN(C)C(=O)[C@H](Cc2ccc(C(F)(F)F)cc2)N2CCCCC[C@@H](C2=O)N(C)C(=O)CN(C)C1=O [PP0470]
NRAS/KRAS (ratio of KD value with respect to GDP-bound NRAS wild-type protein to KD value with respect to KRAS) ([1]; KD ratio NRAS/KRAS, SPR): B (a compound having 3 or more and less than 10 is denoted as B) | HRAS/KRAS (ratio of KD value with respect to GDP-bound HRAS wild-type protein to KD value with respect to KRAS) ([2]; KD ratio HRAS/KRAS, SPR): B (a compound having 3 or more and less than 10 is denoted as B)

Reference: US20250230193A1, “CYCLIC COMPOUND HAVING SELECTIVE KRAS INHIBITORY EFFECT ON HRAS AND NRAS” (CHUGAI SEIYAKU KABUSHIKI KAISHA, priority 2022, published 2025)
